In ChEMBL document CHEMBL3885881, “DrugMatrix”:

Organism: Rattus norvegicus
Assay: DrugMatrix - Regimen: Daily Repeat
Assay type: toxicity, organism-based, Sprague-Dawley
Set-up: regimen Daily Repeat, gender Male, age 6-8 weeks
Conditions: in vivo, po, route oral GAVAGE, vehicle .5 % CMC; for ABSOLUTE BASOPHIL / ABSOLUTE EOSINOPHIL / ABSOLUTE LYMPHOCYTE / ABSOLUTE MONOCYTE / ABSOLUTE SEGMENTED NEUTROPHIL / BASOPHIL / EOSINOPHIL / ERYTHROCYTE COUNT / HEMATOCRIT / HEMOGLOBIN / LEUKOCYTE COUNT / LYMPHOCYTE / MEAN CORPUSCULAR HEMOGLOBIN / MEAN CORPUSCULAR HEMOGLOBIN CONCENTRATION / MEAN CORPUSCULAR VOLUME / MONOCYTE / NEUTROPHIL / NUCLEATED RED BLOOD CELLS / PLATELET COUNT: tissue Blood; for ALANINE AMINOTRANSFERASE / ALBUMIN / ALKALINE PHOSPHATASE / ASPARTATE AMINOTRANSFERASE / BLOOD UREA NITROGEN / CARBON DIOXIDE / CHLORIDE / CHOLESTEROL / CREATINE PHOSPHOKINASE / CREATININE / GLUCOSE / LACTATE DEHYDROGENASE / LIPASE / PHOSPHORUS / POTASSIUM / SODIUM / TOTAL BILIRUBIN / TOTAL PROTEIN / URIC ACID: tissue Plasma
[1] = 0 mg/kg, 72 h, dose level Control, time 3 day
[2] = 0 mg/kg, 120 h, dose level Control, time 5 day
[3] = 1 mg/kg, 72 h, dose level Low, time 3 day

In the case of CCOc1nc2cccc(C(=O)O)c2n1Cc1ccc(-c2ccccc2-c2nnn[nH]2)cc1, the “ABSOLUTE BASOPHIL” value [1] was 0 CELLS/uL, the “ABSOLUTE EOSINOPHIL” value [1] was 35.67 CELLS/uL and the “ABSOLUTE LYMPHOCYTE” value [1] was 9125.17 CELLS/uL. For the same molecule, the “ABSOLUTE MONOCYTE” value [1] was 50.17 CELLS/uL, the “ABSOLUTE SEGMENTED NEUTROPHIL” value [1] was 722.33 CELLS/uL and the BASOPHIL [1] was 0%. For the same molecule, the EOSINOPHIL [1] was 0.33%, the “ERYTHROCYTE COUNT” value [1] was 5.35 x10E6/uL and the HEMATOCRIT [1] was 33.58%. The HEMOGLOBIN [1] was 13.35 G/DL, the “LEUKOCYTE COUNT” value [1] was 9.93 x10E3/uL and the LYMPHOCYTE [1] was 91.67%. For the same molecule, the “MEAN CORPUSCULAR HEMOGLOBIN” value [1] was 25 pg, the “MEAN CORPUSCULAR HEMOGLOBIN CONCENTRATION” value [1] was 39.8 G/DL and the “MEAN CORPUSCULAR VOLUME” value [1] was 62.77 fL. The MONOCYTE [1] was 0.67%, the NEUTROPHIL [1] was 7.33% and the “NUCLEATED RED BLOOD CELLS” value [1] was 0 /100WBC. The “PLATELET COUNT” value [1] was 866.17 x10E3/uL, the “ALANINE AMINOTRANSFERASE” value [1] was 57.17 u/L and the ALBUMIN [1] was 4.22 G/DL. For the same molecule, the “ALKALINE PHOSPHATASE” value [1] was 391 u/L, the “ASPARTATE AMINOTRANSFERASE” value [1] was 95.17 u/L and the “BLOOD UREA NITROGEN” value [1] was 13.67 mg/dL. The “CARBON DIOXIDE” value [1] was 30 mmol/L, the CHLORIDE [1] was 102.5 MEQ/L and the CHOLESTEROL [1] was 72 mg/dL. For the same molecule, the “CREATINE PHOSPHOKINASE” value [1] was 485.67 u/L, the CREATININE [1] was 0.27 mg/dL and the GLUCOSE [1] was 152 mg/dL. For the same molecule, the “LACTATE DEHYDROGENASE” value [1] was 372.67 u/L, the LIPASE [1] was 9.83 u/L and the PHOSPHORUS [1] was 12.47 mg/dL. For the same molecule, the POTASSIUM [1] was 6.81 MEQ/L, the SODIUM [1] was 144.1 MEQ/L and the “TOTAL BILIRUBIN” value [1] was 0.23 mg/dL. For the same molecule, the “TOTAL PROTEIN” value [1] was 5.93 G/DL, the “URIC ACID” value [1] was 1.9 mg/dL and the “ABSOLUTE BASOPHIL” value [2] was 0 CELLS/uL. For the same molecule, the “ABSOLUTE EOSINOPHIL” value [2] was 67.33 CELLS/uL, the “ABSOLUTE LYMPHOCYTE” value [2] was 11419.17 CELLS/uL and the “ABSOLUTE MONOCYTE” value [2] was 203.17 CELLS/uL. For the same molecule, the “ABSOLUTE SEGMENTED NEUTROPHIL” value [2] was 1327 CELLS/uL, the BASOPHIL [2] was 0% and the EOSINOPHIL [2] was 0.5%. For the same molecule, the “ERYTHROCYTE COUNT” value [2] was 5.65 x10E6/uL, the HEMATOCRIT [2] was 35.3% and the HEMOGLOBIN [2] was 13.98 G/DL. For the same molecule, the “LEUKOCYTE COUNT” value [2] was 13.02 x10E3/uL, the LYMPHOCYTE [2] was 88% and the “MEAN CORPUSCULAR HEMOGLOBIN” value [2] was 24.78 pg. For the same molecule, the “MEAN CORPUSCULAR HEMOGLOBIN CONCENTRATION” value [2] was 39.63 G/DL, the “MEAN CORPUSCULAR VOLUME” value [2] was 62.58 fL and the MONOCYTE [2] was 1.33%. For the same molecule, the NEUTROPHIL [2] was 10.17%, the “NUCLEATED RED BLOOD CELLS” value [2] was 0 /100WBC and the “PLATELET COUNT” value [2] was 1213.83 x10E3/uL. For the same molecule, the “ALANINE AMINOTRANSFERASE” value [2] was 49.67 u/L, the ALBUMIN [2] was 4.28 G/DL and the “ALKALINE PHOSPHATASE” value [2] was 362.33 u/L. For the same molecule, the “ASPARTATE AMINOTRANSFERASE” value [2] was 99 u/L, the “BLOOD UREA NITROGEN” value [2] was 20.67 mg/dL and the “CARBON DIOXIDE” value [2] was 26.33 mmol/L. The CHLORIDE [2] was 102 MEQ/L, the CHOLESTEROL [2] was 63.83 mg/dL and the “CREATINE PHOSPHOKINASE” value [2] was 481.83 u/L. The CREATININE [2] was 0.21 mg/dL, the GLUCOSE [2] was 158 mg/dL and the “LACTATE DEHYDROGENASE” value [2] was 656.33 u/L. For the same molecule, the LIPASE [2] was 10.67 u/L, the PHOSPHORUS [2] was 12.27 mg/dL and the POTASSIUM [2] was 6.17 MEQ/L. The SODIUM [2] was 143.35 MEQ/L, the “TOTAL BILIRUBIN” value [2] was 0.17 mg/dL and the “TOTAL PROTEIN” value [2] was 6.13 G/DL. For the same molecule, the “URIC ACID” value [2] was 1.48 mg/dL, the “ABSOLUTE BASOPHIL” value [3] was 0 CELLS/uL and the “ABSOLUTE EOSINOPHIL” value [3] was 0 CELLS/uL. For the same molecule, the “ABSOLUTE LYMPHOCYTE” value [3] was 10188.33 CELLS/uL, the “ABSOLUTE MONOCYTE” value [3] was 75.33 CELLS/uL and the “ABSOLUTE SEGMENTED NEUTROPHIL” value [3] was 1069.67 CELLS/uL. The BASOPHIL [3] was 0%, the EOSINOPHIL [3] was 0% and the “ERYTHROCYTE COUNT” value [3] was 5.49 x10E6/uL. The HEMATOCRIT [3] was 34.4%, the HEMOGLOBIN [3] was 13.73 G/DL and the “LEUKOCYTE COUNT” value [3] was 11.33 x10E3/uL. For the same molecule, the LYMPHOCYTE [3] was 89.67%, the “MEAN CORPUSCULAR HEMOGLOBIN” value [3] was 25.03 pg and the “MEAN CORPUSCULAR HEMOGLOBIN CONCENTRATION” value [3] was 39.93 G/DL. For the same molecule, the “MEAN CORPUSCULAR VOLUME” value [3] was 62.7 fL, the MONOCYTE [3] was 0.67% and the NEUTROPHIL [3] was 9.67%. For the same molecule, the “NUCLEATED RED BLOOD CELLS” value [3] was 0 /100WBC, the “PLATELET COUNT” value [3] was 1183.67 x10E3/uL and the “ALANINE AMINOTRANSFERASE” value [3] was 53.67 u/L. For the same molecule, the ALBUMIN [3] was 4.23 G/DL, the “ALKALINE PHOSPHATASE” value [3] was 410.67 u/L and the “ASPARTATE AMINOTRANSFERASE” value [3] was 90 u/L. For the same molecule, the “BLOOD UREA NITROGEN” value [3] was 16.67 mg/dL, the “CARBON DIOXIDE” value [3] was 29 mmol/L and the CHLORIDE [3] was 102.67 MEQ/L. For the same molecule, the CHOLESTEROL [3] was 81 mg/dL, the “CREATINE PHOSPHOKINASE” value [3] was 371 u/L and the CREATININE [3] was 0.23 mg/dL. The GLUCOSE [3] was 155.67 mg/dL, the “LACTATE DEHYDROGENASE” value [3] was 328 u/L and the LIPASE [3] was 8 u/L. The PHOSPHORUS [3] was 12.13 mg/dL, the POTASSIUM [3] was 6.17 MEQ/L and the SODIUM [3] was 143.6 MEQ/L. The “TOTAL BILIRUBIN” value [3] was 0.2 mg/dL, the “TOTAL PROTEIN” value [3] was 5.9 G/DL and the “URIC ACID” value [3] was 1.6 mg/dL.
